Test results reported in US7547752B2, “Scalp treatment” (Unilever Home & Personal Care USA division of Conopco, Inc., priority 2002, dated 2009).

Test system: scalp itch in panellists with self-perceived dandruff
Assay: Clinical anti-itch study: CLA lotion or lotion base applied before AD or NAD shampoo wash, investigator-scored itch degree
Assay type: in vivo, human
Details: lotion applied one hour before hair wash, shampoo 3 times a week, weekly assessment, FIG. 1
Text: The effect of conjugated linoleic acid, used in conjunction with anti-dandruff (AD) and non anti-dandruff (NAD) shampoo, was clinically assessed using the following protocol.
The conjugated linoleic acid is used as a lotion (composition B). The lotion base comprises Tween™ 20, Carbopol™ 980, Sodium Hydroxide, Natrosol™ 250HHR, EDTA-2Na, glydant plus and water (composition A). The use of the lotion is followed by a shampoo wash with an NAD shampoo (composition C) or an AD shampoo (composition D).
A randomised monadic double blind study design was used based on a total of 240 screened panellists, male and female, with self-perceived dandruff. All 240 panellists used a placebo shampoo (composition C) in their normal hair wash routine for 4 successive weeks.
The panellists were divided into four groups (total number of panellists=240):
Group 1: 60 panellists. All panellists wash their hair with NAD shampoo at home 3 times a week and apply CLA lotion one hour prior to washing their hair.
Group 2: 60 panellists. All panellists wash their hair with NAD shampoo at home 3 times a week and apply lotion base (composition A) one hour prior to washing their hair.
Group 3: 60 panellists. All panellists wash their hair with AD shampoo at home 3 times a week and apply CLA lotion one hour prior to washing their hair.
Group 4: 60 panellists. […]

Conjugated linoleic acid [CLA]
degree of itch of the scalp (itch degree, standard scale 0-4): can increase the degree of scalp itch
